PubChem BioAssay (NCI)
“And” between values parts separate entries of the source, which are not always exact repeats. Equal entries are not always repeated.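 Exposure lasted 48 hours, with cells grown in 96-well plates and compounds tested at five concentrations. At the GI50, growth is halved. TGI marks complete inhibition of growth.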

Experiments:
Test in all cases: NCI anticancer screen, dose series, 48 h
KM12 colon = tested on: KM12 colon
CAKI-1 renal = tested on: CAKI-1 renal
NCI-H460 lung = tested on: NCI-H460 lung
COLO 205 colon = tested on: COLO 205 colon
MDA-N = tested on: MDA-N
BT-549 breast = tested on: BT-549 breast
ACHN renal = tested on: ACHN renal
SN12C renal = tested on: SN12C renal
NCI-H522 lung = tested on: NCI-H522 lung
SF-268 CNS = tested on: SF-268 CNS

Structure (SMILES) | TGI (KM12 colon) | TGI (CAKI-1 renal) | TGI (NCI-H460 lung) | TGI (COLO 205 colon) | TGI (MDA-N) | TGI (BT-549 breast) | TGI (ACHN renal) | TGI (SN12C renal) | TGI (NCI-H522 lung) | TGI (SF-268 CNS) | GI50 (KM12 colon) | GI50 (CAKI-1 renal) | GI50 (COLO 205 colon) | GI50 (MDA-N)
O=C1CC(=Nc2ccc(Cl)cc2)C(c2ccccc2)N1c1ccccc1 (centres undefined) | > 100 µM | 5.71 µM | > 100 µM | 16.4 µM | 10.8 µM | 41.6 µM | > 100 µM | > 100 µM | 7.22 µM | > 100 µM | – | – | – | –
COC(CNC(=O)C(C)NC(=O)CCc1ccccc1)OC (centres undefined) | > 100 µM | > 100 µM | > 100 µM | > 100 µM | > 100 µM | > 100 µM | > 100 µM | > 100 µM | > 100 µM | > 100 µM | – | – | – | –
O=Cc1ccc(OCc2cccc(COc3ccc(/C=N\Nc4ccc([N+](=O)[O-])cc4[N+](=O)[O-])cc3)n2)cc1 | > 100 µM | > 100 µM | > 100 µM | > 100 µM | > 100 µM | > 100 µM | > 100 µM | > 100 µM | > 100 µM | > 100 µM | – | – | – | –
CC12C(=O)CC(CC1=O)C2(C)C | > 100 µM | > 100 µM | > 100 µM | > 100 µM | > 100 µM | > 100 µM | > 100 µM | > 100 µM | > 100 µM | > 100 µM | – | – | – | –
CCOC(=O)/C=C(/C(=O)OCC)n1ccc(=O)n(Cc2cn(COCCOC(C)=O)nn2)c1=O | 35.9 µM | 14 µM | 29 µM | > 100 µM | > 100 µM | 30.4 µM | 28 µM | > 100 µM | 16 µM | 33.5 µM | – | – | – | –
CSc1ncnc2c1ncn2C1CC(Oc2ccc(C)cc2)C(COc2ccc(C)cc2)O1 (centres undefined) | > 100 µM | > 100 µM | > 100 µM | > 100 µM | > 100 µM | > 100 µM | > 100 µM | > 100 µM | > 100 µM | > 100 µM | – | – | – | –
CSc1ccc2c(cc1=O)[C@@H](NC(=O)c1ccc(N)cc1)CCc1cc(O)c(O)c(O)c1-2 | 33.2 µM and 17 µM | > 75 µM and 53.2 µM | 29.6 µM and 49.7 µM | > 100 µM | > 75 µM and 54.1 µM | 38.2 µM and 52.3 µM | 37.4 µM and 43.8 µM | > 75 µM and 90.1 µM | 42.5 µM and 50.5 µM | 47.8 µM and > 100 µM | 14.7 µM and 3.68 µM | > 75 µM and 25.8 µM | 31.7 µM and 4.04 µM | 23.9 µM and 5.99 µM
CCCCN1C(=O)N(c2ccc(OCC)cc2)C2N(CCCC)C1C(C)(C)C2(C)C (centres undefined) | > 100 µM | 93.8 µM | > 100 µM | 70 µM | > 100 µM | > 100 µM | > 100 µM | > 100 µM | > 100 µM | 67.7 µM | – | – | – | –
COc1cc(C(=O)N(Cc2cccnc2)C(=S)N(Cc2cccnc2)C(=O)c2cc(OC)c(OC)c(OC)c2)cc(OC)c1OC | 56.7 µM | > 100 µM | > 100 µM | > 100 µM | > 100 µM | 85.5 µM | > 100 µM | > 100 µM | 97.5 µM | > 100 µM | – | – | – | –
COc1cc(/C=C2/C[C@H]3[C@@H]4CC=C5C[C@@H](O)CC[C@]5(C)[C@H]4CC[C@]3(C)NC2=O)cc(OC)c1OC | > 100 µM | > 59.9 µM | 25.9 µM | > 57.9 µM | > 100 µM | 63 µM | 58 µM | > 64.2 µM | 21.7 µM | 23.4 µM | – | – | – | –
COc1cccc(-c2ccc3c4c2O[C@H]2C(=O)CC[C@@]5(O)[C@@H](C3)N(CC3CC3)CC[C@]425)c1 | 31.7 µM | 31 µM | 50.7 µM | 26.7 µM | 39.3 µM | 35.1 µM | 35.9 µM | 41.4 µM | 32.9 µM | 40.3 µM | – | – | – | –
